Where “and” joins values, the source holds several entries; their conditions need not be identical. Equal values may be shown once.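 Compound exposure: 48 hours, 5 concentrations, 96-well plates. GI50 = concentration required for 50% inhibition of growth. TGI is the concentration that stops growth completely.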
Legend:
Experiment in all cases: NCI-60 cell line screen, 48 h
786-0 renal = tested on: 786-0 renal
HCT-116 colon = tested on: HCT-116 colon
HT29 colon = tested on: HT29 colon
K-562 leukemia = tested on: K-562 leukemia
KM12 colon = tested on: KM12 colon
MDA-MB-231 breast = tested on: MDA-MB-231 breast
OVCAR-4 ovarian = tested on: OVCAR-4 ovarian
RPMI-8226 leukemia = tested on: RPMI-8226 leukemia
SF-539 CNS = tested on: SF-539 CNS
T-47D breast = tested on: T-47D breast
UACC-257 melanoma = tested on: UACC-257 melanoma

| SMILES | TGI (786-0 renal) [µM] | TGI (HCT-116 colon) [µM] | TGI (HT29 colon) [µM] | TGI (K-562 leukemia) [µM] | TGI (KM12 colon) [µM] | TGI (MDA-MB-231 breast) [µM] | TGI (OVCAR-4 ovarian) [µM] | TGI (RPMI-8226 leukemia) [µM] | TGI (SF-539 CNS) [µM] | TGI (T-47D breast) [µM] | TGI (UACC-257 melanoma) [µM] | GI50 (MDA-MB-231 breast) | GI50 (SF-539 CNS) | GI50 (T-47D breast) |
| --- | --- | --- | --- | --- | --- | --- | --- | --- | --- | --- | --- | --- | --- | --- |
| Cc1ccc2nc(SCC(=O)N=Nc3c(O)[nH]c4ccccc34)n(-c3ccccc3)c(=O)c2c1 | 29.5 | 28.4 | 33.5 | 61.9 | 27.9 | 22.8 | 25.9 | 35.7 | 19 | 34 | 55.7 | – | – | – |
| CC(=O)c1c(-c2cccc3ccccc23)c(C#N)c(=S)n(C2OC(CO)C(O)C(O)C2O)c1C (centres undefined) | > 100 | > 100 | > 100 | > 100 | > 100 | > 100 | > 100 | > 100 | > 100 | > 100 | > 100 | > 100 µM and 37.5 µM | > 100 µM and 39.6 µM | > 100 µM and 27.3 µM |
| COc1ccc2c(c1)C(=O)CC1c3cnccc3C(=O)N21 (centres undefined) | > 100 | > 100 | > 100 | > 100 | > 100 | > 100 | > 100 | > 100 | > 100 | > 100 | > 100 | – | – | – |
| Oc1cc(Cc2ccccc2)c(Cc2ccccc2)cc1O | > 10 | > 10 | > 10 | > 10 | > 10 | > 10 | > 10 | > 10 | > 10 | > 10 | > 10 | – | – | – |
| CCO/C(=N/S(=O)(=O)C(F)(F)F)N(C(C)C)C(C)C | > 100 | > 100 | > 100 | – | > 100 | > 100 | > 100 | > 100 | > 100 | > 100 | > 100 | – | – | – |
| CC(C)=CCN1c2ccccc2NC(=O)CC1C (centres undefined) | > 100 | – | > 100 | > 100 | > 100 | > 100 | 73.8 | > 100 | > 100 | > 100 | > 100 | – | – | – |
| C#CCNC(CSSCC(N)C(=O)O)C(=O)O (centres undefined) | > 100 | > 100 | > 100 | – | > 100 | > 100 | > 100 | > 100 | > 100 | > 100 | > 100 | – | – | – |
| CC12CCC(CC(=O)/C1=C(/Br)I)C2(C)C (centres undefined) | 30.2 | 24.9 | 25 | 26.4 | 32 | 17.6 | 29.1 | 26.4 | 29.2 | 46.4 | 29.8 | – | – | – |
| O=c1[nH]cc(NCCCl)c(=O)[nH]1 | > 100 | > 100 | > 100 | > 100 | > 100 | > 100 | > 100 | > 100 | > 100 | > 100 | > 100 | – | – | – |
| CC(=O)O[C@H]1CC(C)(C)C(=C=C/C(C)=C/C=C/C=C/C=C(C)/C=C2C=C(/C=C/[C@@]34O[C@]3(C)C[C@@H](O)CC4(C)C)C(=O)O/2)[C@](C)(O)C1 | 85.9 | 50.5 | > 100 | 57.2 | 46.5 | 97.4 | > 100 | 27.9 | 38 | > 100 | 51.5 | – | – | – |
| O=C(Nc1ccc(N2C(=O)CSC2c2ccccc2O)cc1)c1ccc(N2C(=O)CSC2c2ccccc2O)cc1 (centres undefined) | > 100 | > 100 | > 100 | > 100 | > 100 | > 100 | > 100 | > 100 | > 100 | > 100 | > 100 | – | – | – |
| OC1[C@@H]2[C@@H](O)CCCN2C[C@@H](O)[C@H]1O (some centres undefined) | > 100 | > 100 | > 100 | > 100 | > 100 | > 100 | > 100 | > 100 | > 100 | > 100 | > 100 | – | – | – |
| O=c1[nH]c(Nc2ccccc2)nc2c1ncn2CC(O)CSCCO (centres undefined) | > 100 | > 100 | > 100 | – | > 100 | > 100 | > 100 | > 100 | > 100 | > 100 | > 100 | – | – | – |
| N#Cc1c(-c2ccc(Cl)cc2)c2c(nn3c4ccc5ccccc5c4nnc23)[nH]c1=O | 6.16 | 7.02 | > 33.5 | > 69.6 | 13.3 | 20.6 | 21.6 | > 28.9 | 3.96 | 2.66 | 18.8 | – | – | – |
| C=CCSC1=N/C(=C\c2ccc(Cl)cc2)C(=O)N1CC=C | > 100 | > 100 | > 100 | > 100 | 97.7 | > 100 | 94.7 | 52.9 | > 100 | 63.5 | 76.7 | – | – | – |
| CC(C)/C(Cl)=N/OC(=O)Nc1ccc(Br)cc1 | 3.63 | 10.4 | 18.5 | – | 26.6 | 31.2 | 31.8 | 5.24 | 29.1 | 9.95 | 28.7 | – | – | – |
| COc1cc(C2c3c(ccc4ccccc34)C(=O)C3CCC(=O)N32)cc(OC)c1OC (centres undefined) | > 50 | > 50 | > 50 | > 50 | > 50 | > 50 | > 50 | > 50 | > 50 | > 50 | > 50 | – | – | – |
| O=c1[nH]c2nc3ccccc3c(=O)n2/c1=C/c1ccc(Cl)cc1 | > 100 | > 100 | – | – | > 100 | > 100 | > 100 | > 100 | 47.7 | > 100 | > 100 | – | – | – |
| CCOC(=O)c1ccc(-n2[nH]nc(C(N)=O)c2=O)cc1 | > 100 | > 100 | > 100 | > 100 | > 100 | > 100 | > 100 | > 100 | – | > 100 | > 100 | – | – | – |
| c1ncn(C23C4C5C6C4C2C6C53)n1 (centres undefined) | > 100 | > 100 | > 100 | > 100 | > 100 | > 100 | – | > 100 | > 100 | > 100 | > 100 | – | – | – |

Source: PubChem BioAssay (NCI)
